Experimental data reported in patent US9822091B2, “Method for producing ellagic acid composition” (KAO CORPORATION, priority 2013, dated 2017).

What was measured:
[1] = Evaluation of solubility: free ellagic acid dissolved in water from the dried ellagic acid composition; format: physicochemical
Description: (§1) Free ellagic acid was quantified by a gradient method using a high-performance liquid chromatograph manufactured by Hitachi, Ltd. with a column Cadenza CD-C18 (4.6 mmφ×150 mm, 3 μm) manufactured by Imtakt Corporation at a column temperature of 40° C. A 0.05 mol/L aqueous solution of acetic acid was used as a mobile phase solution A, and acetonitrile was used as a mobile phase solution B, respectively, and they were delivered at 1.0 mL/min.
(§2) The sample injection volume was 10 μL, and quantification was carried out based on an absorbance at a wavelength of 254 nm.
The solubility of free ellagic acid in water in an ellagic acid composition after drying was determined by: adding the ellagic acid composition to distilled water so that the amount of solids was one in an aqueous solution or a suspension before drying; shaking the mixture at 25° C. for 5 minutes; filtering the resultant with a cellulose acetate membrane filter having a pore size of 0.2 μm; and measuring the concentration of ellagic acid dissolved therein.
Solubilization ratio (%) of free ellagic acid=[(Mass of free ellagic acid dissolved in water or aqueous medium)/(Mass of free ellagic acid in material for heat treatment)]×100 […]

[2] = Free ellagic acid dissolved in the aqueous medium of the heat-treated solution (HPLC quantification); format: physicochemical
Description: as §1, §2
Solubilization ratio (%) of free ellagic acid=[(Mass of free ellagic acid dissolved in water or aqueous medium)/(Mass of free ellagic acid in material for heat treatment)]×100
The solution in the slurry supply tank was fed to a stainless-steel flow reactor having an inner volume of 100 mL (manufactured by Nitto Koatsu Co., Ltd.) at 100 mL/min, and was subjected to heat treatment at 110° C. (mean residence time: 1 minute). The pressure was adjusted to 0.3 MPa (gauge pressure) with an outlet valve. […] The cooling rate determined from the time of cooling from 110° C. to 90° C. was 7.88° C./s. A part of the heat-treated solution was sampled, and the amount of free ellagic acid dissolved in the aqueous medium was measured to determine a solubilization ratio.

O=c1oc2c(O)c(O)cc3c(=O)oc4c(O)c(O)cc1c4c23 [Comparative Example 1, ellagic acid dihydrate]
Solubilization ratio ([1]; 5 min): 6%
Concentration of free ellagic acid dissolved in water (25° C.) ([1]; composition powder after freeze or spray drying, redissolved in distilled water, shaken 5 minutes at 25° C., 0.2 μm filter): 5 µg/mL
Solubilization ratio [2]: 8%
Concentration of free ellagic acid dissolved in aqueous medium (25° C.) ([2]; heat-treated solution before drying, 25° C.): 6 µg/mL
